pIC50: −log10 of the molar value.
Biological target: GABA-A receptor; alpha-1/beta-2/gamma-2 (Rattus norvegicus, UniProt P18508+P62813+P63138)
Assay: Inhibition of rat GABA alpha-1-beta-2-gamma-2 receptor
Assay type: protein-complex assay

GABA-A receptor; alpha-1/beta-2/gamma-2, sequence (P18508 whole entry): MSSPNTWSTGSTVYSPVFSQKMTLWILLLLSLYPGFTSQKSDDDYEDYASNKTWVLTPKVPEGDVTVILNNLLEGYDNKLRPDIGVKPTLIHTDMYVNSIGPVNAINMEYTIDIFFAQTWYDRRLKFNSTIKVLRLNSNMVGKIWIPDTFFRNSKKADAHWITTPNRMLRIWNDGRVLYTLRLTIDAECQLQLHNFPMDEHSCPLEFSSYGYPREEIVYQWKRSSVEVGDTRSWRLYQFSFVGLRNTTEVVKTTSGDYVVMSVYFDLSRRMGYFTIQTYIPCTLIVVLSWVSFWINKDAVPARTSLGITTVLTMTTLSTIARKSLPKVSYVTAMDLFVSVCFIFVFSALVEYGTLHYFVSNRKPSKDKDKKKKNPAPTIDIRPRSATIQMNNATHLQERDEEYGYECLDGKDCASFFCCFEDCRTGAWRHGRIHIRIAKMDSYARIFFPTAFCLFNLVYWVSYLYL
GABA-A receptor; alpha-1/beta-2/gamma-2, sequence (P62813 whole entry): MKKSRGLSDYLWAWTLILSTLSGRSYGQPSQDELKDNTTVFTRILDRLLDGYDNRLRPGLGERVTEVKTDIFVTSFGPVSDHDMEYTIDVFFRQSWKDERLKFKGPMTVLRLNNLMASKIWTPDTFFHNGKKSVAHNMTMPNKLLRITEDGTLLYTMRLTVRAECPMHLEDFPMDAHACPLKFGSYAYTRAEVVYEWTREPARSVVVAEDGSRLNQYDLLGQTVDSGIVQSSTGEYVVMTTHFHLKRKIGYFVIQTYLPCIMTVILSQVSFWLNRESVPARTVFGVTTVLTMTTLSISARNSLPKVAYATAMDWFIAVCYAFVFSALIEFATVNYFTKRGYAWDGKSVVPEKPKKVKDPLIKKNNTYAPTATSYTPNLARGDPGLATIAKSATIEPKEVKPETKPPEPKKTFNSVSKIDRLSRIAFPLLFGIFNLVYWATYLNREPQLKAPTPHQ
GABA-A receptor; alpha-1/beta-2/gamma-2, sequence (P63138 whole entry): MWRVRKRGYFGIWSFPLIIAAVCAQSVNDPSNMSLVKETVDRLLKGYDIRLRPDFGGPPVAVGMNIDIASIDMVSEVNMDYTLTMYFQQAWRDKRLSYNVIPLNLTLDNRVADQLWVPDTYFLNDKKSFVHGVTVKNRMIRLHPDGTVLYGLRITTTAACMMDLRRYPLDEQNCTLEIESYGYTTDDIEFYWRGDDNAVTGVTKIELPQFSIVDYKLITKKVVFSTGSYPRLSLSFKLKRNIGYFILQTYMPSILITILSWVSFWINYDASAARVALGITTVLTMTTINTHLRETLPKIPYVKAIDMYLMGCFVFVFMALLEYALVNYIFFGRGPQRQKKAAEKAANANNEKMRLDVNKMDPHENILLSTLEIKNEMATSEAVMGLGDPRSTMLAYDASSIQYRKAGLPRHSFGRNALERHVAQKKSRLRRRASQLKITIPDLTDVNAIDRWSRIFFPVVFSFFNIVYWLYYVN

| SMILES | pIC50 |
| --- | --- |
| NC(=O)/C(=C\Nc1ccc(Cl)cc1)C(=O)c1ccccc1Cl | 5.77 |
| CCNC(=O)/C(=C\Nc1ccc(Cl)cc1)C(=O)c1ccccc1Cl | 7.30 |
| CC(C)NC(=O)/C(=C\Nc1ccc(Cl)cc1)C(=O)c1ccccc1Cl | 7.40 |
| O=C(NC1CC1)/C(=C\Nc1ccc(Cl)cc1)C(=O)c1ccccc1Cl | 7.52 |
| O=C(NC1CCCC1)/C(=C\Nc1ccc(Cl)cc1)C(=O)c1ccccc1Cl | 7.52 |
| CC(C)(C)NC(=O)/C(=C\Nc1ccc(Cl)cc1)C(=O)c1ccccc1Cl | 5.52 |
| CC(C)C(C)NC(=O)/C(=C\Nc1ccc(Cl)cc1)C(=O)c1ccccc1Cl (configuration not stated) | 6.40 |
| CCC(C)NC(=O)/C(=C\Nc1ccc(Cl)cc1)C(=O)c1ccccc1Cl (configuration not stated) | 7.70 |

The next lines start with the values.

| pIC50 | SMILES |
| --- | --- |
| 6.80 | CNC(=O)/C(=C\Nc1ccc(Cl)cc1)C(=O)c1ccccc1Cl |
| 7.10 | CCC(CC)NC(=O)/C(=C\Nc1ccc(Cl)cc1)C(=O)c1ccccc1Cl |
| 8.15 | O=C(NC1CCC1)/C(=C\Nc1ccc(Cl)cc1)C(=O)c1ccccc1Cl |
| 7.35 | CCCNC(=O)/C(=C\Nc1ccc(Cl)cc1)C(=O)c1ccccc1Cl |

Reference: ChEMBL document CHEMBL1240493, “Homology modeling and atomic level binding study of GABA(A) receptor with novel enaminone amides” (Eur J Med Chem, 2010)
